Data from article PMC9127750, “Structure-based design of CDC42 effector interaction inhibitors for the treatment of cancer” (Cell reports, 2022).
Values joined by “and” are separate entries in the source; they are usually repeats but may differ in a detail not shown here. Equal values may be shown once.

System: WM3248 melanoma cells, 486 antibodies
Assay: Reverse phase protein arrays (RPPA)
Assay type: cell-based, Human
Settings: 20 uM, single replicates
Text: Pellets were snap frozen in liquid nitrogen and shipped to MD Anderson Cancer Center core RPPA facility for RPPA analysis (Table S5). Three biological replicates for each sample were generated.
Nomenclatures on the RPPA heatmaps: name_of_antibody.species_of_antibody.status_of_antibody. V - antibody validated; C - validation of antibody in progress; Q - antibody nonspecific; E – under evaluation; antibodies raised in M - mouse, G - goat, R - rabbit, or T - rat.

CN(C)c1cccc(Nc2cc(-c3ccccc3)nc(C3CCNCC3)n2)c1 [ARN22089, N1,N1-dimethyl-N3-(6-phenyl-2-(piperidin-4-yl)pyrimidin-4-yl)benzene-1,3-diamine]
RPPA level HSP60.R.V: 1.015 and 0.888 and 1.096
RPPA level HSP70.R.C: 1.026 and 1.351 and 1.104
RPPA level Hexokinase.I.R.C: 0.978 and 0.986
RPPA level Hexokinase.II.R.V: 1.256 and 0.762 and 0.871
RPPA level Hif.1αR.C: 0.972 and 1.096 and 0.645
RPPA level Histone.H3.R.V: 1.540 and 13.252 and 0.726
RPPA level Histone.H3_pS10.R.V: 1.398 and 3.688 and 0.992
RPPA level IDO.R.C: 0.839 and 1.159
RPPA level IGF1R_pY1135_Y1136.R.V: 0.898 and 1.026 and 1.052
RPPA level IGFBP2.R.V: 0.627 and 0.801 and 1.270
RPPA level IGFBP3.M.V: 0.715 and 1.003 and 1.004
RPPA level IGFRb.R.C: 1.190
RPPA level IL.6.R.C: 0.855 and 1.111 and 1.060
RPPA level IMP3.R.C: 1.052 and 1.022 and 0.974
RPPA level INPP4b.R.C: 1.077 and 0.833 and 0.806
RPPA level IR.b.R.C: 0.907 and 1.208 and 1.333
RPPA level IRF.1.R.V: 0.730 and 0.964 and 1.168
RPPA level IRF.3.R.V: 0.995 and 0.906 and 0.945
RPPA level IRS1.R.V: 1.014 and 1.159 and 1.141
RPPA level IRS2.R.C: 1.278 and 1.343 and 1.011
RPPA level JAB1.M.C: 0.955 and 0.936 and 1.024
RPPA level JNK2.R.V: 0.819 and 0.805 and 1.152
RPPA level JNK_pT183_Y185.R.C: 0.945 and 1.049 and 1.120
RPPA level Jagged1.R.V: 0.981 and 1.189
RPPA level Jak2.R.V: 1.014 and 1.017
RPPA level KAP1.R.V: 1.154 and 0.878
RPPA level KEAP1.R.V: 1.208 and 0.814 and 0.859
RPPA level LAD1.R.V: 0.839 and 1.022 and 1.196
RPPA level LC3A.B.R.C: 1.392 and 1.015
RPPA level LCN2.R.V: 2.637 and 0.737 and 1.009
RPPA level LDHA.R.C: 0.867 and 0.798 and 1.272
RPPA level LRP6_pS1490.R.V: 0.973
RPPA level Lasu1.R.V: 1.275 and 1.065 and 0.935
RPPA level Lck.R.V: 1.245 and 1.124 and 1.192
RPPA level Lyn.R.V: 1.188 and 0.948
RPPA level MACC1.R.V: 1.006 and 1.026 and 0.991
RPPA level MAPK_pT202_Y204.R.C: 0.788 and 0.541 and 0.701
RPPA level MCT4.R.V: 0.646 and 0.854 and 1.188
RPPA level MDM2_pS166.R.V: 1.371 and 1.241 and 1.078
RPPA level MEK1.R.V: 0.858 and 3.823 and 2.342
RPPA level MEK1_pS217_S221.R.V: 0.758 and 1.168 and 1.336
RPPA level MEK2.R.V: 1.000 and 1.139
RPPA level MERIT40.R.C: 0.830 and 0.763
RPPA level MERIT40_pS29.R.V: 0.843 and 1.161
RPPA level METTL3.R.V: 1.391 and 1.001
RPPA level MIF.R.C: 1.003 and 0.889 and 0.956
RPPA level MIG6.R.V: 0.962 and 1.022 and 0.982
RPPA level MITF.R.V: 1.062 and 1.054 and 0.977
RPPA level MLH1.M.V: 0.822 and 0.867 and 0.972
RPPA level MLKL.R.V: 0.744 and 0.811 and 1.046
RPPA level MMP2.R.V: 1.019 and 0.966 and 0.959
RPPA level MMP14.R.V: 1.320 and 1.294 and 1.349
RPPA level MR1.M.C: 0.957 and 1.152 and 0.970
RPPA level MRAP.R.C: 0.958 and 1.263 and 1.157
RPPA level MSH2.R.C: 0.876 and 0.877 and 0.987
RPPA level MSH6.R.C: 1.224 and 1.204 and 1.063
RPPA level MSI2.R.C: 1.222 and 1.004
RPPA level MTCO1.M.V: 1.417 and 0.726
RPPA level MTSS1.M.C: 0.974 and 1.002 and 0.966
RPPA level Mcl.1.R.V: 0.716 and 0.788 and 1.009
RPPA level MelanA.R.C: 1.005
RPPA level Melanoma.gp100.R.C: 0.910 and 0.978 and 1.134
RPPA level Merlin.R.C: 1.134 and 1.227 and 1.109
RPPA level Midkine.R.V: 0.990 and 0.926 and 0.994
RPPA level Mitofusin.1.R.V: 0.874 and 0.829 and 1.152
RPPA level Mitofusin.2.R.V: 0.751 and 0.836
RPPA level Mnk1.R.V: 0.933 and 0.905 and 1.031
RPPA level mTOR.R.V: 0.956 and 0.920
RPPA level mTOR_pS2448.R.C: 0.845 and 0.920 and 0.976
RPPA p21.R.C: 1.050 and 0.570 and 0.863
RPPA p27.Kip1.R.C: 1.342 and 1.132 and 0.997
RPPA p27_pT157.R.C: 1.309 and 1.207 and 1.127
RPPA p27_pT198.R.V: 1.003 and 1.297 and 1.169
RPPA p38.MAPK.R.V: 0.937 and 0.864 and 1.143
RPPA p38.MAPK._pT180_Y182.R.V: 0.828 and 1.168 and 1.281
RPPA p38.a.M.V: 0.862 and 0.943
RPPA p44.42.MAPK.R.V: 1.247 and 0.862 and 0.981
RPPA p53.R.C: 0.928 and 1.483 and 1.058
RPPA p70.S6K1.R.V: 1.060 and 0.948
RPPA p70.S6K_pT389.R.V: 0.797 and 1.020 and 1.171
RPPA p90RSK_pT573.R.C: 1.285 and 0.748 and 1.009
